The values below come from patent US5498780A, “Platinum complex and malignant tumor treating drug containing the same” (SS Pharmaceutical Co., Ltd., priority 1994, dated 1996).

Series [1] has as its system murine P388 leukemia cell. Kind of series: Antitumor effect on murine P388 leukemia cell. Format: in vivo, murine; male CDF1 mice. As to conditions: for ILSmax (maximum percent increase in life-span) / ILS50 (dose which shows 50% of the ILS value by 5 administrations) / dose corresponding to ILSmax: P388, i.p. once a day for 5 days; for ILSmax (maximum percent increase in life-span): 30 days observation; for ILS50 (dose which shows 50% of the ILS value by 5 administrations): linear regression; for TI (therapeutic index, LD50 value/ILS50 value): P388. On the procedure: (§1) Murine L1210 leukemia cells (1×10^5 cells) were inoculated peritoneally into six-week-old male CDF1 mice on day 0. From the next day after the inoculation, a drug (the compound of the invention or a compound for comparison) was administered peritoneally once a day for 5 days. After 30 days of observation, the percent increase in life-span (ILS) was calculated as follows: […]
(§2) T: mean survival days of the drug-treated group
(§3) C: mean survival days of control group
(§4) In these tables, ILSmax means maximum ILS value (%), and corresponding dose (mg/kg) is Shown in parenthesis.
Antitumor effect on murine P388 leukemia cell:
The test of Test Example 1 was repeated except that 1×10^6 of murine P388 leukemia cells were used instead of 1×10^5 of murine L1210 leukemia cells.

The test system of series [2] is murine L1210 leukemia cell. Kind of series: Antitumor effect on murine L1210 leukemia cell (increase in life-span of inoculated mice). The series is classed as in vivo, murine; male CDF1 mice. As to conditions: for ILSmax (maximum percent increase in life-span) / ILS50 (dose which shows 50% of the ILS value by 5 administrations) / dose corresponding to ILSmax: L1210, i.p. once a day for 5 days; for ILSmax (maximum percent increase in life-span): 30 days observation; for ILS50 (dose which shows 50% of the ILS value by 5 administrations): linear regression; for TI (therapeutic index, LD50 value/ILS50 value): L1210. The procedure: as §1, §2, §3, §4

Series [3] concerns cisplatin-resistant murine L1210 leukemia cell (L1210/DDP). Kind of series: Antitumor effect on cisplatin-resistant murine L1210 leukemia cell (L1210/DDP). Format: in vivo, murine; male CDF1 mice. The settings on record: for ILSmax (maximum percent increase in life-span) / dose corresponding to ILSmax / ILS50 (dose which shows 50% of the ILS value by 5 administrations): i.p. once a day for 5 days; for ILSmax (maximum percent increase in life-span): 30 days observation; for ILS50 (dose which shows 50% of the ILS value by 5 administrations): linear regression. On the procedure:
as §1, §2, §3
In these tables, ILSmax means maximum ILS value (%), and corresponding dose (mg/kg) is Shown in parenthesis. In this test, cisplatin and carboplatin were respectively tested in each test lot for accurate comparison.
Antitumor effect on cisplatin-resistant murine L1210 leukemia cell (L1210/DDP):
The test of Test Example 1 was repeated except that cisplatin-resistant murine L1210 leukemia cell (L1210/DDP) was used instead of murine L1210 leukemia cell.

Series [4] can be described thus: 50% lethal dose by single peritoneal administration, obtained at the time of the dose setting. Format: in vivo, CDF1 mice.
Source text: as §4

In the case of `CCON.N.[Cl][Pt][Cl]` [Compound No. 5, cis-dichloroammine (O-ethylhydroxylamine)platinum(II)], in series [1] (Table 8 test lot), the “ILSmax (maximum percent increase in life-span)” value is on record as more than 129.6%; the “ILS50 (dose which shows 50% of the ILS value by 5 administrations)” value came out at 0.6 mg/kg; the “dose corresponding to ILSmax” value is on record as 4.0 mg/kg; the “TI (therapeutic index, LD50 value/ILS50 value)” value is on record as 36.8. In addition, in series [2] (Table 4 test lot), the “ILSmax (maximum percent increase in life-span)” value is given as more than 109.4%; the “ILS50 (dose which shows 50% of the ILS value by 5 administrations)” value came to 0.9 mg/kg; the “dose corresponding to ILSmax” value came to 4.0 mg/kg; the “TI (therapeutic index, LD50 value/ILS50 value)” value was found to be 24.6. In addition, in series [3] (Table 6 test lot), the “TI (therapeutic index, LD50 value/ILS50 value)” value stood at 27.6; the “ILSmax (maximum percent increase in life-span)” value is recorded as more than 152.8%; the “dose corresponding to ILSmax” value is recorded as 2.0 mg/kg; the “ILS50 (dose which shows 50% of the ILS value by 5 administrations)” value is recorded as 0.8 mg/kg. The “LD50 (50% lethal dose)” value in series [4] is 22.1 mg/kg.

For `CC(C)(C)ON.N.[Cl][Pt][Cl]` [Compound No. 7, cis-dichloroammine (O-tert-butylhydroxylamine)platinum(II)], in series [1] (Table 9 test lot), the “ILSmax (maximum percent increase in life-span)” value is recorded as 92.3%; the “ILS50 (dose which shows 50% of the ILS value by 5 administrations)” value is on record as less than 1.0 mg/kg; the “dose corresponding to ILSmax” value is 2.0 mg/kg; the “TI (therapeutic index, LD50 value/ILS50 value)” value was more than 22.1. Further, in series [2] (Table 5 test lot), the “ILSmax (maximum percent increase in life-span)” value was more than 181.3%; the “ILS50 (dose which shows 50% of the ILS value by 5 administrations)” value is listed as 1.5 mg/kg; the “dose corresponding to ILSmax” value came to 8.0 mg/kg; the “TI (therapeutic index, LD50 value/ILS50 value)” value came to 14.7. In addition, in series [3] (Table 7 test lot), the “TI (therapeutic index, LD50 value/ILS50 value)” value was more than 22.1; the “ILSmax (maximum percent increase in life-span)” value is given as more than 206.1%; the “dose corresponding to ILSmax” value was 1.0 mg/kg; the “ILS50 (dose which shows 50% of the ILS value by 5 administrations)” value is given as less than 1.0 mg/kg. The “LD50 (50% lethal dose)” value in series [4] stood at 22.1 mg/kg.

Consider `CCCO[NH][Pt]([NH2])([Cl])[Cl]` [Compound No. 8, cis-dichloroammine (O-propylhydroxylamine)platinum(II)], for which, in series [1] (Table 9 test lot), the “ILSmax (maximum percent increase in life-span)” value turned out to be 101.9%; the “ILS50 (dose which shows 50% of the ILS value by 5 administrations)” value is less than 0.5 mg/kg; the “dose corresponding to ILSmax” value is 2.0 mg/kg; the “TI (therapeutic index, LD50 value/ILS50 value)” value is reported as more than 22.0. Moreover, in series [2] (Table 5 test lot), the “ILSmax (maximum percent increase in life-span)” value is recorded as more than 131.3%; the “ILS50 (dose which shows 50% of the ILS value by 5 administrations)” value was 0.8 mg/kg; the “dose corresponding to ILSmax” value is recorded as 4.0 mg/kg; the “TI (therapeutic index, LD50 value/ILS50 value)” value amounted to 13.8. Further, in series [3] (Table 7 test lot), the “TI (therapeutic index, LD50 value/ILS50 value)” value is recorded as more than 22.0; the “ILSmax (maximum percent increase in life-span)” value is listed as more than 175.5%; the “dose corresponding to ILSmax” value came to 1.0 mg/kg; the “ILS50 (dose which shows 50% of the ILS value by 5 administrations)” value is reported as less than 0.5 mg/kg. The “LD50 (50% lethal dose)” value in series [4] is recorded as 11.0 mg/kg.

As to `N.NOC1CCCCC1.[Cl][Pt][Cl]` [Compound No. 9, cis-dichloroammine (O-cyclohexylhydroxylamine)platinum(II)], in series [1] (Table 9 test lot), the “ILSmax (maximum percent increase in life-span)” value was 114.4%; the “ILS50 (dose which shows 50% of the ILS value by 5 administrations)” value is given as less than 1.0 mg/kg; the “dose corresponding to ILSmax” value was 4.0 mg/kg; the “TI (therapeutic index, LD50 value/ILS50 value)” value was more than 22.1. Also, in series [2] (Table 5 test lot), the “ILSmax (maximum percent increase in life-span)” value is 108.8%; the “ILS50 (dose which shows 50% of the ILS value by 5 administrations)” value was 1.3 mg/kg; the “dose corresponding to ILSmax” value is 4.0 mg/kg; the “TI (therapeutic index, LD50 value/ILS50 value)” value came to 17.0. In series [3] (Table 7 test lot), the “TI (therapeutic index, LD50 value/ILS50 value)” value is given as more than 22.1; the “ILSmax (maximum percent increase in life-span)” value is given as more than 206.1%; the “dose corresponding to ILSmax” value was 1.0 mg/kg; the “ILS50 (dose which shows 50% of the ILS value by 5 administrations)” value is given as less than 1.0 mg/kg. Also, the “LD50 (50% lethal dose)” value in series [4] is 22.1 mg/kg.
